# Counter-ions that a name gives are not always drawn.
# Molecular target: recombinant USP30 (amino acids 57-517 of the human sequence) (Homo sapiens (Human), UniProt Q70CQ3)
# Test: In vitro USP30 biochemical assay (Ubiquitin-Rhodamine)
# Details: USP30 IC50 μM (avg), Ubiquitin-Rhodamine substrate 25 nM, 1.5 nM recombinant USP30
# recombinant USP30 (amino acids 57-517 of the human sequence), sequence (Q70CQ3 57-517): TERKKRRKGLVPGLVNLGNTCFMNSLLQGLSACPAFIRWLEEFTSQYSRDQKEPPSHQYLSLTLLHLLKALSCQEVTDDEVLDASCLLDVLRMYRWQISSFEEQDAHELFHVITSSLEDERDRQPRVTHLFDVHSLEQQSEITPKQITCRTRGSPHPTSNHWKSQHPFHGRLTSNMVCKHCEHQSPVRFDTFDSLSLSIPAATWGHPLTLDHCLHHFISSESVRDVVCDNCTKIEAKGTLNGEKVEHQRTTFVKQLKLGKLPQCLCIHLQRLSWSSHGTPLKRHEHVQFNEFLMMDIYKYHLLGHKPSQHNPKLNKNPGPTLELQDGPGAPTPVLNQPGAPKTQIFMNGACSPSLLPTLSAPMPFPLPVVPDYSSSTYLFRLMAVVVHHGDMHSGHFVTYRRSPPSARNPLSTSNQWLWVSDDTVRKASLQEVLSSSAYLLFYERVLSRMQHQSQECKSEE
row,IC50,SMILES
1,1 to 10 µM,"CN(C)CCNS(=O)(=O)c1ccc(NC(=O)[C@H](Cc2ccccc2)NC(=O)c2ccc(F)cc2)cn1 [Compound I-109, (S)-N-(1-(6-(N-(2-(dimethylamino)ethyl)sulfamoyl)pyridin-3-ylamino)-1-oxo-3-phenylpropan-2-yl)-4-fluorobenzamide formate]"
2,0.05 to 1 µM,"O=C(N[C@@H](Cc1ccccc1)C(=O)Nc1ccc(S(=O)(=O)NCCO)nc1)c1ccc(F)cc1 [Compound I-110, (S)-4-fluoro-N-(1-(6-(N-(2-hydroxyethyl)sulfamoyl)pyridin-3-ylamino)-1-oxo-3-phenylpropan-2-yl)benzamide]"
3,0.05 to 1 µM,"CC(C)(C#N)NS(=O)(=O)c1ccc(NC(=O)[C@H](Cc2ccccc2)NC(=O)c2ccc(F)cc2)cn1 [Compound I-176, (S)-N-(1-(6-(N-(2-cyanopropan-2-yl)sulfamoyl)pyridin-3-ylamino)-1-oxo-3-phenylpropan-2-yl)-4-fluorobenzamide]"
4,0.05 to 1 µM,"O=C(N[C@@H](Cc1ccccc1)C(=O)Nc1ccc(S(=O)(=O)NC2COC2)c(Cl)c1)c1ccc(F)cc1 [Compound I-170, (S)-N-(1-(3-chloro-4-(N-oxetan-3-ylsulfamoyl)phenylamino)-1-oxo-3-phenylpropan-2-yl)-4-fluorobenzamide]"
5,0.05 to 1 µM,"COc1cc(NC(=O)[C@H](Cc2ccccc2)NC(=O)c2ccc(F)cc2)ccc1S(=O)(=O)NC(C)(C)C#N [Compound I-180, (S)-N-(1-(4-(N-(2-cyanopropan-2-yl)sulfamoyl)-3-methoxyphenylamino)-1-oxo-3-phenylpropan-2-yl)-4-fluorobenzamide]"
6,0.05 to 1 µM,"C#CC(C)(C)NS(=O)(=O)c1ccc(NC(=O)[C@H](Cc2ccccc2)NC(=O)c2ccc(F)cc2)cc1OC [Compound I-181, (S)-4-fluoro-N-(1-(3-methoxy-4-(N-(2-methylbut-3-yn-2-yl)sulfamoyl)phenylamino)-1-oxo-3-phenylpropan-2-yl)benzamide]"
7,1 to 10 µM,"COCC(C)(C)NS(=O)(=O)c1ccc(NC(=O)[C@H](Cc2ccccc2)N(C)C(=O)c2ccc(F)cc2)cc1 [Compound I-160, (S)-4-fluoro-N-(1-(4-(N-(1-methoxy-2-methylpropan-2-yl)sulfamoyl)phenylamino)-1-oxo-3-phenylpropan-2-yl)-N-methylbenzamide]"
8,1 to 10 µM,"CCNS(=O)(=O)c1ccc(NC(=O)[C@H](Cc2ccccc2)NC(=O)c2ccc(F)cc2)c(OC)c1 [Compound I-143, (S)-N-(1-(4-(N-ethylsulfamoyl)-2-methoxyphenylamino)-1-oxo-3-phenylpropan-2-yl)-4-fluorobenzamide]"
9,0.05 to 1 µM,"O=C(N[C@@H](Cc1ccccc1)C(=O)Nc1ccc(S(=O)(=O)NC23CC(C2)C3)c(Cl)c1)c1ccc(F)cc1 [Compound I-169, (S)-N-(1-(4-(N-bicyclo[1.1.1]pentan-1-ylsulfamoyl)-3-chlorophenylamino)-1-oxo-3-phenylpropan-2-yl)-4-fluorobenzamide]"
10,1 to 10 µM,"COc1cc(S(=O)(=O)NC23CC(C2)C3)ccc1NC(=O)[C@H](Cc1ccccc1)NC(=O)c1ccc(F)cc1 [Compound I-145, (S)-N-(1-(4-(N-bicyclo[1.1.1]pentan-1-ylsulfamoyl)-2-methoxyphenylamino)-1-oxo-3-phenylpropan-2-yl)-4-fluorobenzamide]"
11,0.05 to 1 µM,"COc1cc(NC(=O)[C@H](Cc2ccccc2)NC(=O)c2ccc(F)cc2)ccc1S(=O)(=O)NC(C)(C)CCN1CCOCC1 [Compound I-154, (S)-4-fluoro-N-(1-(3-methoxy-4-(N-(2-methyl-4-morpholinobutan-2-yl)sulfamoyl)phenylamino)-1-oxo-3-phenylpropan-2-yl)benzamide]"
12,0.05 to 1 µM,"C#CC(C)(C)NS(=O)(=O)c1ccc(NC(=O)[C@H](Cc2ccccc2)NC(=O)c2ccc(F)cc2)cn1 [Compound I-177, (S)-4-fluoro-N-(1-(6-(N-(2-methylbut-3-yn-2-yl)sulfamoyl)pyridin-3-ylamino)-1-oxo-3-phenylpropan-2-yl)benzamide]"

# Same assay, conditions: read-out: USP30 IC50 μM (avg), Ubiquitin-Rhodamine substrate 25 nM, 1.5 nM recombinant USP30
row,IC50,SMILES
1,> 10 µM,"CC(C)(C)NS(=O)(=O)c1ccc(NC(=O)[C@H](Cc2ccccc2)NC(=O)C2COC2)cc1 [Compound I-86, (S)-N-(1-(4-(N-tert-butylsulfamoyl)phenylamino)-1-oxo-3-phenylpropan-2-yl)oxetane-3-carboxamide]"
2,< 0.05 µM,"O=C(N[C@@H](Cc1ccccc1)C(=O)Nc1ccc(S(=O)(=O)N[C@H]2CCOC2)cc1)c1ccc(F)cc1 [Compound I-174, 4-fluoro-N-((S)-1-oxo-3-phenyl-1-(4-(N-((S)-tetrahydrofuran-3-yl)sulfamoyl)phenylamino)propan-2-yl)benzamide]"
3,< 0.05 µM,"COc1cc(NC(=O)[C@H](Cc2ccccc2)NC(=O)c2ccc(F)cc2)ccc1S(=O)(=O)N[C@@H]1CCOC1 [Compound I-183, 4-fluoro-N-((S)-1-(3-methoxy-4-(N-((R)-tetrahydrofuran-3-yl)sulfamoyl)phenylamino)-1-oxo-3-phenylpropan-2-yl)benzamide]"
4,< 0.05 µM,"O=C(N[C@@H](Cc1ccccc1)C(=O)Nc1ccc(S(=O)(=O)N[C@H]2CCOC2)nc1)c1ccc(F)cc1 [Compound I-178, 4-fluoro-N-((S)-1-oxo-3-phenyl-1-(6-(N-((S)-tetrahydrofuran-3-yl)sulfamoyl)pyridin-3-ylamino)propan-2-yl)benzamide]"
5,< 0.05 µM,"C#CC(C)(C)NS(=O)(=O)c1ccc(NC(=O)[C@H](Cc2ccccc2)NC(=O)c2ccc(F)cc2)cc1 [Compound I-173, (S)-4-fluoro-N-(1-(4-(N-(2-methylbut-3-yn-2-yl)sulfamoyl)phenylamino)-1-oxo-3-phenylpropan-2-yl)benzamide]"
6,> 10 µM,"CC(C)(C)NS(=O)(=O)c1ccc(NC(=O)C2Cc3ccncc3N2C(=O)c2ccc(F)cc2)cc1 (centres unmarked) [Compound I-56, N-(4-(N-tert-butylsulfamoyl)phenyl)-1-(4-fluorobenzoyl)-2,3-dihydro-1H-pyrrolo[2,3-c]pyridine-2-carboxamide]"
7,< 0.05 µM,"CC(C)(C)NS(=O)(=O)c1ccc(NC(=O)[C@H](Cc2ccccc2)NC(=O)c2ccc(F)cc2)cc1C#N [Compound I-167, (S)-N-(1-(4-(N-tert-butylsulfamoyl)-3-cyanophenylamino)-1-oxo-3-phenylpropan-2-yl)-4-fluorobenzamide]"
8,> 10 µM,"CN(C)S(=O)(=O)c1cccc2c(NC(=O)[C@H](Cc3ccccc3)NC(=O)C3CCCCC3)cccc12 [Compound I-127, (S)-N-(1-(5-(N,N-dimethylsulfamoyl)naphthalen-1-ylamino)-1-oxo-3-phenylpropan-2-yl)cyclohexanecarboxamide]"
9,< 0.05 µM,"CC(C)(CCN1CCOCC1)NS(=O)(=O)c1ccc(NC(=O)[C@H](Cc2ccccc2)NC(=O)c2ccc(F)cc2)cc1 [Compound I-163, (S)-4-fluoro-N-(1-(4-(N-(2-methyl-4-morpholinobutan-2-yl)sulfamoyl)phenylamino)-1-oxo-3-phenylpropan-2-yl)benzamide]"
10,< 0.05 µM,"CC(C)(C)NS(=O)(=O)c1ccc(NC(=O)[C@H](Cc2ccccc2)NC(=O)c2ccc(F)cc2)cc1Cl [Compound I-168, (S)-N-(1-(4-(N-tert-butylsulfamoyl)-3-chlorophenylamino)-1-oxo-3-phenylpropan-2-yl)-4-fluorobenzamide]"
11,> 10 µM,"O=C(NC1(C(=O)Nc2ccc(S(=O)(=O)NC3CC3)cc2)Cc2ccccc2C1)c1ccc(F)cc1 [Compound I-103, N-(4-(N-cyclopropylsulfamoyl)phenyl)-2-(4-fluorobenzamido)-2,3-dihydro-1H-indene-2-carboxamide]"

# Source: US11845724B2, “USP30 inhibitors and uses thereof” (Vincere Biosciences, Inc., priority 2019, dated 2023)
